Data reported in patent publication US20230114728A1 (Venatorx Pharmaceuticals, Inc., priority 2019, published 2023).
In brackets after ≈: the same amount, converted by molar mass.

What was measured:
Assay in all cases: Broth microdilution MIC in CAMHB
Type in all cases: cell-based
A. baumannii ATCC 19606 = conditions: Acinetobacter baumannii, ATCC19606; MHB; read-out: Minimum Inhibitory Concentration, A. baumannii ATCC 19606
In short: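 Hyper-permeable or efflux-deficient strains serve to probe outer-membrane penetration. Growth inhibition is scored visually after 16-20 h at 37° C in CAMHB, starting from 2-8×10^5 CFU/mL.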

E. coli 901C = conditions: Escherichia coli; E. coli 901C (hyper-permeable); MHB; read-out: Minimum Inhibitory Concentration, E. coli 901C
In short: (§1)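 Colonies from cation-adjusted Mueller Hinton agar are grown in broth (3-5 h, 37° C), adjusted by OD600, and added at 2-8×10^5 CFU/mL to 2-fold compound dilutions. After 16-20 h at 37° C, the lowest concentration without growth is taken as MIC.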

E. coli AG100A = conditions: Escherichia coli, read-out: Minimum Inhibitory Concentration, E. coli AG100A
In short: as §1

E. coli AG100 = conditions: Escherichia coli; E. coli AG100 (wild-type parent); MHB; read-out: Minimum Inhibitory Concentration, E. coli AG100
In short: as §1

E. coli ATCC 25922 = conditions: Escherichia coli, ATCC25922; E. coli ATCC 25922; MHB; read-out: Minimum Inhibitory Concentration, E. coli 25922
In short: as §1

E. coli D22 = conditions: Escherichia coli; E. coli D22 (hyper-permeable); MHB; read-out: Minimum Inhibitory Concentration, E. coli D22
In short: as §1

[1] = system: K. pneumoniae 848844 producing SHV-11 and KPC-2; conditions: Klebsiella pneumoniae, read-out: Minimum Inhibitory Concentration, K. pneumoniae 848844
In short: as §1

[2] = system: K. pneumoniae SI-117 producing VIM-1; conditions: Klebsiella pneumoniae, read-out: Minimum Inhibitory Concentration, K. pneumoniae SI-117
In short: as §1

[3] = system: K. pneumoniae UMM producing SHV-5 and KPC-2; conditions: Klebsiella pneumoniae, read-out: Minimum Inhibitory Concentration, K. pneumoniae UMM
In short: as §1

[4] = system: P. aeruginosa (ΔmexAB-oprM); conditions: Pseudomonas aeruginosa, read-out: Minimum Inhibitory Concentration, P. aeruginosa ΔmexAB-OprM
In short: as §1

P. aeruginosa ATCC 27853 = conditions: Pseudomonas aeruginosa, ATCC27853; MHB; read-out: Minimum Inhibitory Concentration, P. aeruginosa ATCC 27853
In short: as §1

P. aeruginosa ATCC 35151 = conditions: Pseudomonas aeruginosa, ATCC35151; MHB; hyper-permeable strain; read-out: Minimum Inhibitory Concentration, P. aeruginosa ATCC 35151
In short: as §1

Structure (SMILES) | MIC (A. baumannii ATCC 19606) [µg/mL] | MIC (E. coli 901C) [µg/mL] | MIC (E. coli AG100A) [µg/mL] | MIC (E. coli AG100) [µg/mL] | MIC (E. coli ATCC 25922) [µg/mL] | MIC (E. coli D22) [µg/mL] | MIC [1] [µg/mL] | MIC [2] [µg/mL] | MIC [3] [µg/mL] | MIC [4] [µg/mL] | MIC (P. aeruginosa ATCC 27853) [µg/mL] | MIC (P. aeruginosa ATCC 35151) [µg/mL]
NCCN1CCN(C(=O)N[C@@H](C(=O)N[C@H]2Cc3cccc(C(=O)O)c3OB2O)c2ccc(O)cc2Cl)C(=O)C1=O (single isomer, unassigned) [Example 86] | > 128 | 2 to 4 (≈ 3.49 to 6.97 µM) | 2 to 4 (≈ 3.49 to 6.97 µM) | 32 to 64 (≈ 55.8 to 112 µM) | 32 to 64 (≈ 55.8 to 112 µM) | 8 to 16 (≈ 13.9 to 27.9 µM) | 32 to 64 (≈ 55.8 to 112 µM) | 32 to 64 (≈ 55.8 to 112 µM) | 32 to 64 (≈ 55.8 to 112 µM) | 8 to 16 (≈ 13.9 to 27.9 µM) | > 128 | 0.5 to 1 (≈ 0.871 to 1.74 µM)
NCCN1CCN(C(=O)N[C@H](C(=O)N[C@H]2Cc3cccc(C(=O)O)c3OB2O)c2ccc(O)cc2F)C(=O)C1=O (single isomer, unassigned) [Example 88] | > 128 | 8 to 16 (≈ 14.4 to 28.7 µM) | 32 to 64 (≈ 57.4 to 115 µM) | > 128 | > 128 | 32 to 64 (≈ 57.4 to 115 µM) | > 128 | > 128 | > 128 | > 128 | > 128 | 2 to 4 (≈ 3.59 to 7.18 µM)
NCCN1CCN(C(=O)N[C@@H](C(=O)N[C@H]2Cc3cccc(C(=O)O)c3OB2O)c2ccc(O)cc2F)C(=O)C1=O (single isomer, unassigned) [Example 89] | > 128 | 2 to 4 (≈ 3.59 to 7.18 µM) | 2 to 4 (≈ 3.59 to 7.18 µM) | 32 to 64 (≈ 57.4 to 115 µM) | 32 to 64 (≈ 57.4 to 115 µM) | 8 to 16 (≈ 14.4 to 28.7 µM) | 32 to 64 (≈ 57.4 to 115 µM) | 32 to 64 (≈ 57.4 to 115 µM) | 32 to 64 (≈ 57.4 to 115 µM) | 8 to 16 (≈ 14.4 to 28.7 µM) | > 128 | 0.5 to 1 (≈ 0.897 to 1.79 µM)
CCN1CCN(C(=O)N[C@@H](C(=O)N[C@H]2Cc3cccc(C(=O)O)c3OB2O)c2cc(Cl)c(O)cc2Cl)C(=O)C1=O (single isomer, unassigned) [Example 91] | > 128 | < 0.25 | 2 to 4 (≈ 3.37 to 6.74 µM) | 8 to 16 (≈ 13.5 to 27 µM) | 32 to 64 (≈ 53.9 to 108 µM) | 2 to 4 (≈ 3.37 to 6.74 µM) | > 128 | > 128 | 32 to 64 (≈ 53.9 to 108 µM) | 32 to 64 (≈ 53.9 to 108 µM) | > 128 | 0.5 to 1 (≈ 0.843 to 1.69 µM)
CCN1CCN(C(=O)N[C@H](C(=O)N[C@H]2Cc3cccc(C(=O)O)c3OB2O)c2cc(Cl)c(O)cc2Cl)C(=O)C1=O (single isomer, unassigned) [Example 92] | > 128 | 2 to 4 (≈ 3.37 to 6.74 µM) | > 128 | > 128 | > 128 | > 128 | > 128 | > 128 | > 128 | > 128 | > 128 | 8 to 16 (≈ 13.5 to 27 µM)
CCN1CCN(C(=O)NC(C(=O)N[C@H]2Cc3ccc(F)c(C(=O)O)c3OB2O)c2ccc(C(=O)O)cc2)C(=O)C1=O (stereo partly drawn) [Example 15, (3R)-3-(2-(4-carboxyphenyl)-2-(4-ethyl-2,3-dioxopiperazine-1-carboxamido)acetamido)-7-fluoro-2-hydroxy-3,4-dihydro-2H-benzo[e][1,2]oxaborinine-8-carboxylic acid] | > 128 | 0.5 to 1 (≈ 0.877 to 1.75 µM) | 32 to 64 (≈ 56.1 to 112 µM) | > 128 | > 128 | 8 to 16 (≈ 14 to 28.1 µM) | > 128 | > 128 | > 128 | 8 to 16 (≈ 14 to 28.1 µM) | 32 to 64 (≈ 56.1 to 112 µM) | < 0.25
